These results are taken from patent US7432256B2, “Substitued imidazo [1,5-A][1,2,4]triazolo[1,5-D][1,4]benzodiazepine derivatives” (Hoffman-La Roche Inc., priority 2004, dated 2008).

Counter-ions that a name gives are not always drawn. Like-named read-outs stand apart in the source and are kept apart here.

Experiment [1] deals with T1, GABA A receptor a1b3g2 (hα1) (Homo sapiens, UniProt P14867+P18507).
T1 construct: expressed in transfected cells; host or cells: HEK293 (transient transfection), membranes
Description: [3H]flumazenil competition binding, GABA A a1b3g2 receptors in HEK293 cells. The procedure:
(§1) Membrane Preparation and Binding Assay
(§2) The affinity of compounds at GABA A receptor subtypes was measured by competition for [3H]flumazenil (85 Ci/mmol; Roche) binding to HEK293 cells expressing rat (stably transfected) or human (transiently transfected) receptors of composition a1b3g2, a2b3g2, a3b3g2 and a5b3g2.
(§3) Cell pellets were suspended in Krebs-tris buffer (4.8 mM KCl, 1.2 mM CaCl2, 1.2 mM MgCl2, 120 mM NaCl, 15 mM Tris; pH 7.5; binding assay buffer), homogenized by polytron for ca. 20 sec on ice and centrifuged for 60 min at 4° C. (50000 g; Sorvall, rotor: SM24=20000 rpm). The cell pellets were resuspended in Krebs-tris buffer and homogenized by polytron for ca. 15 sec on ice. Protein was measured (Bradford method, Bio-Rad) and aliquots of 1 mL were prepared and stored at −80° C.
(§4) Assays were incubated to equilibrium for 1 hour at 4° C. and harvested onto GF/C uni-filters (Packard) by filtration using a Packard harvester and washing with ice-cold wash buffer (50 mM Tris; pH 7.5). After drying, filter-retained radioactivity was detected by liquid scintillation counting. Ki values were calculated using Excel-Fit (Microsoft) and are the means of two determinations.
(§5) The major important difference is change from SF9 to HEK293 cells (which are human transiently transfected).

The target in experiment [2] is T2, GABA A receptor a5b3g2 (hα5) (Homo sapiens, UniProt P18507+P31644).
T2 construct: expressed in transfected cells; host or cells: HEK293 (transient transfection), membranes
The experiment can be described thus: [3H]flumazenil competition binding, GABA A a5b3g2 receptors in HEK293 cells. The procedure: as §1, §2, §3, §4, §5

Experiment [3] concerns the target T3, GABA A receptor a3b3g2 (hα3) (Homo sapiens, UniProt P18507+P34903).
T3 construct: expressed in transfected cells; host or cells: HEK293 (transient transfection), membranes
Description: [3H]flumazenil competition binding, GABA A a3b3g2 receptors in HEK293 cells. As for the experimental part: as §1, §2, §3
(§6) Radioligand binding assays were carried out in a volume of […] (96-well plates) which contained […] of cell memebranes, [3H]flumazenil at a concentration of 1 nM for a1, a2, a3 subunits and 0.5 nM for a5 subunits and the test compound in the range of 10-10-3×10^-6 M. Nonspecific binding was defined by 10^-5 M diazepam and typically represented less than 5% of the total binding. Assays were incubated to equilibrium for 1 hour at 4° C. and harvested onto GF/C uni-filters (Packard) by filtration using a Packard harvester and washing with ice-cold wash buffer (50 mM Tris; pH 7.5). After drying, filter-retained radioactivity was detected by liquid scintillation counting. Ki values were calculated using Excel-Fit (Microsoft) and are the means of two determinations.
as §5

Experiment [4] concerns the target T4, GABA A receptor a2b3g2 (hα2) (Homo sapiens, UniProt P18507+P47869).
T4 construct: expressed in transfected cells; host or cells: HEK293 (transient transfection), membranes
The experiment can be described thus: [3H]flumazenil competition binding, GABA A a2b3g2 receptors in HEK293 cells. As for the experimental part:
as §1, §2, §3, §6, §5

The mark [5] stands for this setting: [3H]flumazenil 0.5 nM, HEK293 membranes, human transiently transfected, mean of two determinations, read-out: Ki[nM] hα5.
[6] abbreviates: [3H]flumazenil 1 nM, HEK293 membranes, human transiently transfected, mean of two determinations, read-out: Ki[nM] hα1.
Setting [7] is: [3H]flumazenil 1 nM, HEK293 membranes, human transiently transfected, mean of two determinations, read-out: Ki[nM] hα3.
Where [8] appears, read: [3H]flumazenil 1 nM, HEK293 membranes, human transiently transfected, mean of two determinations, read-out: Ki[nM] hα2.

For the compound `Clc1ccc2c(c1)-c1ncnn1Cc1c(C#Cc3ccccc3)ncn1-2` [Example 30, 3-Chloro-10-phenylethynyl-9H-imidazo[1,5-a][1,2,4]triazolo[1,5-d][1,4]benzodiazepine], the Ki in experiment [1] was determined as 13.3 nM; in experiment [2] (setting [5]), 1.2 nM.
Take `C#Cc1ncn2c1Cn1ncnc1-c1cc(Br)ccc1-2` [Example 27, 3-Bromo-10-ethynyl-9H-imidazo[1,5-a][1,2,4]triazolo[1,5-d][1,4]benzodiazepine]: the Ki stood at 20.3 nM in experiment [1], 11.9 nM in experiment [3], 0.9 nM in experiment [2] (setting [5]) and 19 nM in experiment [4].
For the compound `Cc1ncn2c1Cn1ncnc1-c1cc(I)ccc1-2` [Example 53, 3-Iodo-10-methyl-9H-imidazo[1,5-a][1,2,4]triazolo[1,5-d][1,4]benzodiazepine hydrochloride (1:1)], the Ki in experiment [1] (setting [6]) came out at 184 nM; in experiment [3] (setting [7]), 126 nM; in experiment [2] it was 4.3 nM; in experiment [4] (setting [8]) it was 261 nM.
Regarding `Cc1ncn2c1Cn1ncnc1-c1c(F)cccc1-2` [Example 57, 4-Fluoro-10-methyl-9H-imidazo[1,5-a][1,2,4]triazolo[1,5-d][1,4]benzodiazepine], the Ki is 4.7 nM in experiment [1], 6.3 nM in experiment [3], 1 nM in experiment [2] (setting [5]) and 12.8 nM in experiment [4].
`C#Cc1ncn2c1Cn1ncnc1-c1cc(Cl)ccc1-2` [Example 26, 3-Chloro-10-ethynyl-9H-imidazo[1,5-a][1,2,4]triazolo[1,5-d][1,4]benzodiazepine]: the Ki in experiment [1] is 4.6 nM; in experiment [3], 3.5 nM; in experiment [2] (setting [5]), 0.5 nM; in experiment [4], 6.4 nM.
On the same counts, the results for `CCCc1ncn2c1Cn1ncnc1-c1cc(Cl)ccc1-2` [Example 12, 3-Chloro-10-propyl-9H-imidazo[1,5-a][1,2,4]triazolo[1,5-d][1,4]benzodiazepine] are 4.2 nM, 5.6 nM, 1.6 nM and 7.9 nM.
The corresponding values for `C=Cc1ncn2c1Cn1ncnc1-c1cc(F)ccc1-2` [Example 19, 3-Fluoro-10-vinyl-9H-imidazo[1,5-a][1,2,4]triazolo[1,5-d][1,4]benzodiazepine] are 7.8 nM, 2.3 nM, 11 nM and 5.9 nM.
As to `Cc1ncn2c1Cn1ncnc1-c1ccccc1-2` [Example 1, 10-Methyl-9H-imidazo[1,5-a][1,2,4]triazolo[1,5-d][1,4]benzodiazepine], the Ki in experiment [1] is 41.6 nM; in experiment [3] it was 10.1 nM; in experiment [2] (setting [5]), 2.6 nM; in experiment [4] it was 15.5 nM.
The corresponding values for `CCc1ncn2c1Cn1ncnc1-c1cc(OC)ccc1-2` [Example 11, 10-Ethyl-3-methoxy-9H-imidazo[1,5-a][1,2,4]triazolo[1,5-d][1,4]benzodiazepine] are 26.7 nM, 39.1 nM, 3.8 nM and 84.6 nM.
On the same counts, the results for `Cc1ncn2c1Cn1ncnc1-c1cc(F)ccc1-2` [Example 2, 3-Fluoro-10-methyl-9H-imidazo[1,5-a][1,2,4]triazolo[1,5-d][1,4]benzodiazepine] are 18.2 nM, 10.8 nM, 3 nM and 9.1 nM.
In the case of `Clc1ccc2c(c1)-c1ncnn1Cc1c(CC3CC3)ncn1-2` [Example 14, 3-Chloro-10-cyclopropylmethyl-9H-imidazo[1,5-a][1,2,4]triazolo[1,5-d][1,4]benzodiazepine], the inhibition constant (Ki) in experiment [1] turned out to be 4.9 nM; in experiment [3], 6.1 nM; in experiment [2] (setting [5]) it was 1.7 nM; in experiment [4] it was 10.2 nM.
On to `C/C=C/c1ncn2c1Cn1ncnc1-c1cc(Cl)ccc1-2` [Example 21, 3-Chloro-10-(E)-propenyl-9H-imidazo[1,5-a][1,2,4]triazolo[1,5-d][1,4]benzodiazepine], for which the Ki stood at 5.2 nM in experiment [1], 4.8 nM in experiment [3], 0.4 nM in experiment [2] (setting [5]) and 6.9 nM in experiment [4].
Turning to `CCc1ncn2c1Cn1ncnc1-c1cc(F)ccc1-2` [Example 9, 10-Ethyl-3-fluoro-9H-imidazo[1,5-a][1,2,4]triazolo[1,5-d][1,4]benzodiazepine], the Ki in experiment [1] was 7.9 nM; in experiment [3] it was 1.3 nM; in experiment [2] (setting [5]), 0.5 nM; in experiment [4], 1.9 nM.
On to `FC(F)Cc1ncn2c1Cn1ncnc1-c1ccccc1-2` [Example 41, 10-(2,2-Difluoro-ethyl)-9H-imidazo[1,5-a][1,2,4]triazolo[1,5-d][1,4]benzodiazepine], for which the Ki in experiment [1] was found to be 13.5 nM; in experiment [3] it was 7 nM; in experiment [2] (setting [5]) it was 1 nM; in experiment [4], 14.4 nM.
For “3-Fluoro-10-(3-methoxy-phenylethynyl)-9H-imidazo[1,5-a][1,2,4]triazolo[1,5-d][1,4]benzodiazepine [Example 34]”, the Ki in experiment [1] (setting [6]) amounted to 14.1 nM; in experiment [2] (setting [5]) it was 1.1 nM.
Take `CC(C)(O)C#Cc1ncn2c1Cn1ncnc1-c1cc(Cl)ccc1-2` [Example 28, 3-Chloro-10-(3-hydroxy-3-methyl-but-1-ynyl)-9H-imidazo[1,5-a][1,2,4]triazolo[1,5-d][1,4]benzodiazepine]: the Ki stood at 91 nM in experiment [1] and 3.6 nM in experiment [2] (setting [5]).
As for `FC(F)=Cc1ncn2c1Cn1ncnc1-c1ccccc1-2` [Example 40, 10-(2,2-Difluoro-vinyl)-9H-imidazo[1,5-a][1,2,4]triazolo[1,5-d][1,4]benzodiazepine], the Ki was 8.5 nM in experiment [1], 2.3 nM in experiment [3], 0.5 nM in experiment [2] (setting [5]) and 3.7 nM in experiment [4].
On the same counts, the results for `Clc1ccc2c(c1)-c1ncnn1Cc1c(/C=C/C3CC3)ncn1-2` [Example 23, 3-Chloro-10-((E)-2-cyclopropyl-vinyl)-9H-imidazo[1,5-a][1,2,4]triazolo[1,5-d][1,4]benzodiazepine] are 26.9 nM, 32.5 nM, 3.7 nM and 41 nM.
Consider `CC(C)c1cccc(C#Cc2ncn3c2Cn2ncnc2-c2cc(F)ccc2-3)c1` [Example 36, 3-Fluoro-10-(3-isopropyl-phenylethynyl)-9H-imidazo[1,5-a][1,2,4]triazolo[1,5-d][1,4]benzodiazepine], for which the Ki in experiment [1] worked out at 4 nM; in experiment [2] (setting [5]) it was 1.5 nM.
On the same counts, the results for `Fc1ccc2c(c1)-c1ncnn1Cc1c(C#Cc3cccc(C(F)(F)F)c3)ncn1-2` [Example 33, 3-Fluoro-10-(3-trifluoromethyl-phenylethynyl)-9H-imidazo[1,5-a][1,2,4]triazolo[1,5-d][1,4]benzodiazepine] are 3.4 nM and 1.2 nM.
On the same counts, the results for `CCCc1ncn2c1Cn1ncnc1-c1cc(Br)ccc1-2` [Example 42, 3-Bromo-10-propyl-9H-imidazo[1,5-a][1,2,4]triazolo[1,5-d][1,4]benzodiazepine] are 10.6 nM and 1.4 nM.
On to `C=Cc1ncn2c1Cn1ncnc1-c1ccccc1-2` [Example 18, 10-Vinyl-9H-imidazo[1,5-a][1,2,4]triazolo[1,5-d][1,4]benzodiazepine], for which the Ki turned out to be 12.8 nM in experiment [1], 3.7 nM in experiment [3], 0.8 nM in experiment [2] (setting [5]) and 5.7 nM in experiment [4].
Regarding `Cc1ncn2c1Cn1ncnc1-c1cc(Cl)ccc1-2` [Example 3, 3-Chloro-10-methyl-9H-imidazo[1,5-a][1,2,4]triazolo[1,5-d][1,4]benzodiazepine], the Ki turned out to be 18.5 nM in experiment [1], 265 nM in experiment [3] (setting [7]), 3 nM in experiment [2] and 219 nM in experiment [4] (setting [8]).
For the compound `Fc1cccc(C#Cc2ncn3c2Cn2ncnc2-c2cc(F)ccc2-3)c1` [Example 31, 3-Fluoro-10-(3-fluoro-phenylethynyl)-9H-imidazo[1,5-a][1,2,4]triazolo[1,5-d][1,4]benzodiazepine], the Ki in experiment [1] came out at 5.5 nM; in experiment [3] it was 3.6 nM; in experiment [2] (setting [5]) it was 1.6 nM; in experiment [4] it was 4.5 nM.
